Source: ChEMBL document CHEMBL1201862, “PubChem BioAssay data set” (2004)
Activity calls are given as the source filed them.

How the values were obtained:
[1] = target: G-protein coupled receptor 55 (Homo sapiens, UniProt Q9Y2T6); test: SAR Analysis of Selective Antagonists of GPR55 using an Image-Based Assay - Set 4. [Related pubchem assays (depositor defined):AID2013, AID2026]; assay type: functional;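 also: antagonism of response to 5 µM lysophosphatidylinositol agonist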
[2] = target: T1, Cannabinoid receptor 1 (Homo sapiens, UniProt P21554); test: SAR analysis of antagonists of the Cannabinoid Receptor 1 using an Image-Based Assay - Set 4. [Related pubchem assays (depositor defined):AID2013, AID2026]; assay type: functional
[3] = target: T2, G-protein coupled receptor 35 (Homo sapiens, UniProt Q9HC97); test: SAR analysis of Agonists of the GPR35 Receptor using an Image-Based Assay - Set 4. [Related pubchem assays (depositor defined):AID2013, AID2026]; assay type: functional
[4] = target: T3, Probable nicotinate-nucleotide adenylyltransferase (Staphylococcus aureus (strain N315), UniProt P65502); assay type: functional, Staphylococcus aureus subsp. aureus N315; details: read-out: IC50_Mean;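 as to IC50 Mean: confirmatory dose-response retesting of NadD inhibitor hits first found in an ultra-high-throughput screen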
[5] = target: T4, Cannabinoid receptor 2 (Homo sapiens, UniProt P34972); test: SAR analysis of agonists of the Cannabinoid Receptor 2 using an Image-Based Assay - Set 3. [Related pubchem assays (depositor defined):AID2013, AID2026]; assay type: functional
[6] = target: T4, Cannabinoid receptor 2; test: SAR analysis of antagonists of the Cannabinoid Receptor 2 using an Image-Based Assay - Set 3. [Related pubchem assays (depositor defined):AID2013, AID2026]; assay type: functional
[7] = target: T3, Probable nicotinate-nucleotide adenylyltransferase; assay type: functional, Staphylococcus aureus subsp. aureus N315
[8] = target: T1, Cannabinoid receptor 1; test: SAR analysis of agonists of the Cannabinoid Receptor 1 using an Image-Based Assay - Set 4. [Related pubchem assays (depositor defined):AID2013, AID2026]; assay type: functional
[9] = target: T2, G-protein coupled receptor 35; test: SAR analysis of Antagonists of the GPR35 Receptor using an Image-Based Assay - Set 6. [Related pubchem assays (depositor defined):AID2013, AID2026]; assay type: functional
[10] = target: T5, Hexokinase HKDC1 (Homo sapiens, UniProt Q2TB90); test: HKDC1 hexokinase activators, dose response, biochemical, W721R variant (AID 504730); assay type: functional
T5 sequence (Q2TB90 whole entry): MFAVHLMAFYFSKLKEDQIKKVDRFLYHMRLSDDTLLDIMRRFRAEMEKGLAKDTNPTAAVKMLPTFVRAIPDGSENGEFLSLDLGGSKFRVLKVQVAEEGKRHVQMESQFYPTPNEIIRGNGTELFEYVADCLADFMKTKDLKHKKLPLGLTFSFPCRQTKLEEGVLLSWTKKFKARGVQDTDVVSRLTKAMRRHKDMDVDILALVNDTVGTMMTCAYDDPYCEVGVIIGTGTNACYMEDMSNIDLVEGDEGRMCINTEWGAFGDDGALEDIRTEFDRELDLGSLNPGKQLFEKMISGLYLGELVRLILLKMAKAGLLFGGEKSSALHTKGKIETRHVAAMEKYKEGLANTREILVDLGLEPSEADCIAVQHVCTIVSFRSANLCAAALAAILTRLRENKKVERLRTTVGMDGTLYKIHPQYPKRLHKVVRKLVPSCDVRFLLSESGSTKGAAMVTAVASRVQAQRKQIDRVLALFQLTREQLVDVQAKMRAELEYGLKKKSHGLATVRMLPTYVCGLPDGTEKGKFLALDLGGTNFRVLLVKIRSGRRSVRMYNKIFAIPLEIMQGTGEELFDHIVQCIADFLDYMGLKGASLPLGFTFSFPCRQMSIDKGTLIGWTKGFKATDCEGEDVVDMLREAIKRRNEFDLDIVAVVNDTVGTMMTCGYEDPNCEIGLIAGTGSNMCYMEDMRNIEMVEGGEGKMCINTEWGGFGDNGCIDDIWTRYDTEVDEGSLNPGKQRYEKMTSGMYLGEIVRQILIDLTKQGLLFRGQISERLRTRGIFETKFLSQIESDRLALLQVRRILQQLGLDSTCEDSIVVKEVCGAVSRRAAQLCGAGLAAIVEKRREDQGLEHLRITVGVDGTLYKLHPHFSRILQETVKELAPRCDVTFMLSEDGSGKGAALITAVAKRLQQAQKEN

[11] = target: T6, Hexokinase-1 (Homo sapiens, UniProt P19367); test: hexokinase 1 activators, dose response, selectivity assay for HKDC1 activator project, biochemical (AID 504762); assay type: functional
T6 sequence (P19367 whole entry): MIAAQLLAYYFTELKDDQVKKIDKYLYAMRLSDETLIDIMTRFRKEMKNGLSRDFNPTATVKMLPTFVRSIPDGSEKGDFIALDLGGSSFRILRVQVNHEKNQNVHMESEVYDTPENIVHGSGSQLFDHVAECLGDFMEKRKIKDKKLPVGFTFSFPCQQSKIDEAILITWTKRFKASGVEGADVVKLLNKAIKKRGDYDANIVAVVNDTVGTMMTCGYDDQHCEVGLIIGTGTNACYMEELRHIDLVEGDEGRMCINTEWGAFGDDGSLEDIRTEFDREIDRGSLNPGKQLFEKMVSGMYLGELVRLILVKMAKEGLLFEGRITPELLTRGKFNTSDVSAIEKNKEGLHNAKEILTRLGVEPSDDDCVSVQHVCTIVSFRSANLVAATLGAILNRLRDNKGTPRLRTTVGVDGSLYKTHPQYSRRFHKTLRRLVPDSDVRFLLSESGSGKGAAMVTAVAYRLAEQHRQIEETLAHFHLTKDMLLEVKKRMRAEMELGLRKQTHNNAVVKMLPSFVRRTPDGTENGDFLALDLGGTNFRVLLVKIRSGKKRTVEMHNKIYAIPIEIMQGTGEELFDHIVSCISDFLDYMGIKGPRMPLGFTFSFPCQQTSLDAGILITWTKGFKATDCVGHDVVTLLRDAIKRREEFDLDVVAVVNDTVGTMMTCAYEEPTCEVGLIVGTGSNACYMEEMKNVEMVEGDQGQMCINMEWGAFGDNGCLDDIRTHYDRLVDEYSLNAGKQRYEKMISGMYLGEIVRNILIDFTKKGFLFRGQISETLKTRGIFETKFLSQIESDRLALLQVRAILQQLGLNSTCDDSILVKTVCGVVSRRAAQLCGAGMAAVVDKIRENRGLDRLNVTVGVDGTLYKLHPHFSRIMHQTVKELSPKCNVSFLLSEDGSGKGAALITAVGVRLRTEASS

T4 sequence (P34972 whole entry): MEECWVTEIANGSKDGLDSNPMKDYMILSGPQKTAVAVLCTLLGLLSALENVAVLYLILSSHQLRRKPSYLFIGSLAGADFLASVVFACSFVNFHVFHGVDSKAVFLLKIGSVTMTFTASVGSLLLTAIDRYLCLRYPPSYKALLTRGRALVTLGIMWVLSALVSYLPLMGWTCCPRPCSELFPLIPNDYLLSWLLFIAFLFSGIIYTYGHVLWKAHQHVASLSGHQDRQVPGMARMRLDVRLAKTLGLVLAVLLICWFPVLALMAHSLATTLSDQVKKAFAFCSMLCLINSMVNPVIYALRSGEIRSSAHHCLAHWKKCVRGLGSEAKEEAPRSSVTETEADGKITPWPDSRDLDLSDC
T2 sequence (Q9HC97 whole entry): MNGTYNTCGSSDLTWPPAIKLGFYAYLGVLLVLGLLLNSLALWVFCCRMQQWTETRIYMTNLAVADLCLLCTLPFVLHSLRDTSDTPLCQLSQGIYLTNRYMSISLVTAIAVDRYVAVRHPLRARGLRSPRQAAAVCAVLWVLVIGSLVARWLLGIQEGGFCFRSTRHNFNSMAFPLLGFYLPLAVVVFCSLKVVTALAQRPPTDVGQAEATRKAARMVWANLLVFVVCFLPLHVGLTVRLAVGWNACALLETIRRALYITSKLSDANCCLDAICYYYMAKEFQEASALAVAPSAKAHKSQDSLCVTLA
T1 sequence (P21554 whole entry): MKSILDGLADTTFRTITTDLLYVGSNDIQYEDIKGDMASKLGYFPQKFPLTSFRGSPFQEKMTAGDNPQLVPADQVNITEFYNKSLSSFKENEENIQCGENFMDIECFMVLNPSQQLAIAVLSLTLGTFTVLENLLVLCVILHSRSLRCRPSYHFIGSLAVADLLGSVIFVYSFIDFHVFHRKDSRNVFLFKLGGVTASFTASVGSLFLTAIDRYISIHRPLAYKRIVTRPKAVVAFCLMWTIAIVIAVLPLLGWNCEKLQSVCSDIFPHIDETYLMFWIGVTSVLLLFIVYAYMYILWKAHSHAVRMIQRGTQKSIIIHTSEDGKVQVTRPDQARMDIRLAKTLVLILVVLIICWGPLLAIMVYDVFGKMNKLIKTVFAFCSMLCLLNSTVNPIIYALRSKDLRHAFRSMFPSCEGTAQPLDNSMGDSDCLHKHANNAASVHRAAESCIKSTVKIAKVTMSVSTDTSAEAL
Chain of G-protein coupled receptor 55 (Q9Y2T6 whole entry): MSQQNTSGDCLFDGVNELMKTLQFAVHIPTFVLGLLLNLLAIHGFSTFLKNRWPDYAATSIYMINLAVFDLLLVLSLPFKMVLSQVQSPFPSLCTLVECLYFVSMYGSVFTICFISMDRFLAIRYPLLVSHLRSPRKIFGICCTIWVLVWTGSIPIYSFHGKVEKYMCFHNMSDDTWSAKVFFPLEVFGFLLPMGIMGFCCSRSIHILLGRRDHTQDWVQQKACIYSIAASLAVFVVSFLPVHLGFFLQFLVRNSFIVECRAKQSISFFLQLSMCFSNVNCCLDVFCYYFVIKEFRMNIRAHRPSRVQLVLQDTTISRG

IC50 [1]	IC50 [2]	EC50 [3]	IC50 [4]	EC50 [5]	IC50 [6]	IC50 [7]	EC50 [8]	IC50 [9]	EC50 [10]	EC50 [11]	SMILES
18.2 µM (inactive)	16.9 µM (inactive)	> 32 µM (inactive)	17.3 µM (active)	> 32 µM (inactive)	> 32 µM (inactive)	5.33 µM (active)	> 32 µM (inactive)	> 32 µM (inactive)	–	–	COc1ccc(-c2cc(C(=O)Nc3ccc(S(=O)(=O)Nc4onc(C)c4C)cc3)c3ccccc3n2)cc1
–	–	–	–	–	–	–	–	–	7.65 µM (active)	> 80 µM (inactive)	O=S(=O)(c1ccc(NC(=S)NN=C(Cc2ccccc2)Cc2ccccc2)cc1)N1CCOCC1
11.7 µM (inactive)	0.474 µM (active)	> 32 µM (inactive)	–	> 32 µM (inactive)	13.9 µM (inactive)	–	> 32 µM (inactive)	> 32 µM (inactive)	–	–	CC(C)(C)c1ccc(-c2c(-c3nc4ccccc4[nH]3)n[nH]c2-c2ccccc2)cc1
